ChEMBL document CHEMBL3813693, “Gastroprotective effects of new diterpenoid derivatives from Azorella cuatrecasasii Mathias & Constance obtained using a β-cyclodextrin complex with microbial and chemical transformations” (2016)

Legend:
Mus musculus [1] = experiment: Gastroprotective activity in Swiss albino mouse assessed as reduction in HCl/EtOH-induced gastric lesions at 20 mg/kg, po dosed 50 mins before HCl/EtOH challenge measured after 1 hr relative to control; format: functional; conditions: Stomach
Mus musculus [2] = experiment: Gastroprotective activity in Swiss albino mouse model of HCl/EtOH-induced ulcer assessed as lesion index at 20 mg/kg, po dosed 50 mins before HCl/EtOH challenge measured after 1 hr (reference value: 37.7 +/- 4.3 millimeter); format: functional

SMILES | inhibition in vivo at 20 mg/kg (Mus musculus [1]) [%] | UI (Mus musculus [2]) [mm]
CC(=O)OCC1=CC[C@]2(C)CC[C@]3(C(=O)O)[C@@H](C(C)C)CC[C@H]3[C@@H]2C=C1 | 43 | 21.6
COC(=O)[C@]12C[C@@H](O)[C@@]3(C)CC=C(CO)C=C[C@H]3[C@@H]1CC[C@@H]2C(C)C | 36 | 24.3
COC(=O)[C@]12C[C@@H](OC(C)=O)[C@@]3(C)CC=C(COC(C)=O)C=C[C@H]3[C@@H]1CC[C@@H]2C(C)C | 6 | 35.6
Cc1c(OCC(F)(F)F)ccnc1C[S+]([O-])c1nc2ccccc2[nH]1 (stereo not drawn) [LANSOPRAZOLE] | 57 | 16.1
CC(C)[C@H]1CC[C@H]2[C@@H]3C=CC(CO)=CC[C@]3(C)CC[C@]12C(=O)O | 59 | 15.4
COC(=O)[C@]12CC[C@@]3(C)CC=C(CO)C=C[C@H]3[C@@H]1CC[C@@H]2C(C)C | 18 | 31
CC(=O)OCC1=CC[C@]2(C)[C@H](OC(C)=O)C[C@]3(C(=O)O)[C@@H](C(C)C)CC[C@H]3[C@@H]2C=C1 | 48 | 19.6
CC(C)[C@H]1CC[C@H]2[C@@H]3C=CC(CO)=CC[C@]3(C)[C@H](O)C[C@]12C(=O)O | 69 | 11.8
COC(=O)[C@]12CC[C@@]3(C)CC=C(COC(C)=O)C=C[C@H]3[C@@H]1CC[C@@H]2C(C)C | 3 | 36.8
